Test results from US7691842B2, “Tricyclic 6-alkylidene-penems as β-lactamase inhibitors” (Wyeth LLC, priority 2002, dated 2010).
Where a name gives a salt, the structure may show the parent alone. Read-outs that look alike come from different tables or passages of the source.

What was measured:
[1] = target: class A β-lactamase TEM-1 (Escherichia coli, UniProt P62593); test: β-Lactamase inhibition, IC50 determination (nitrocefin, spectrophotometric); format: biochemical, E. Coli
Method: (§1) IC50 Determination for the Penem Inhibitor
(§2) β-Lactamase inhibitory activity of the penem inhibitors was determined spectrophotometrically as described by Bush et al., [Bush, K., Macalintal, C., Rasmussen, B. A., Lee, V. and Yang, Y. Antimicrobial Agents and Chemotherapy 1993, 37, 851]. Homogeneously purified class A β-lactamases TEM-1 from E. Coli and Imi-1 from Enterobacter cloacae, class B enzyme CcrA from Bacteroides fragilis and class C enzyme AmpC from Enterobacter cloaca were employed in the assay. The enzyme concentrations for TEM-1, Imi-1, CcrA and AmpC were 4.3, 7.1, 1.2 and 2.1 nM, respectively. A wide range of inhibitor concentrations were prepared in 50 mM PO4, pH 7.0 to include the possible IC50 values. The substrate used to initiate the enzyme reaction was nitrocefin at 50 μg/ml in the same buffer as the inhibitor. Initially the enzyme and inhibitor (20 μl each) were preincubated for 10 minutes at 25° C. prior to the addition of 160 μl volume of nitrocefin. Initial rates of hydrolysis were monitored for 5 minutes at 495 nm using a Molecular Devices Spectra Max 250 with kinetic protocol of SoftMax Program. Readings from the Spectra Max 250 were exported and transferred to Microsoft Excel. The percent of inhibition of each inhibitor concentration was calculated based on the control enzyme activity. The inhibitor concentration that caused a 50% reduction in the enzymatic activity (IC50) was determined graphically.

[2] = target: class A β-lactamase Imi-1 (Enterobacter cloacae, UniProt Q46991); test: as above; format: biochemical
Method: as §1, §2

class B enzyme CcrA = class B enzyme CcrA (Bacteroides fragilis, UniProt P25910); test: as above; format: biochemical; conditions: read-out: IC50 (nM) Class B Ccr
Method: as §1, §2

class C enzyme AmpC = class C enzyme AmpC (Enterobacter cloacae, UniProt P05364); test: biochemical; set-up: species or system Enterobacter cloaca
Method: as §1, §2

[3] = tested on: Clinical isolates that have been adapted to cause infection in mice; test: In vivo antibacterial protection (7 day survival of infected mice, ED50); set-up: species or system mice strain CD-1; conditions: Mus musculus, 168 h
From the text: In Vivo Antibacterial Protection
Female mice strain CD-1, approximately 18-22 grams, were received from Charles River Laboratories and quarantined 7 days prior to use. In addition, mice may be rendered neutropenic using cytoxan for particular studies.
Clinical isolates that have been adapted to cause infection in mice, are used in the experiment, including infections with strains of E. coli, K. pneumoniae, M. morganii, E. cloacae, S. marcescens, C. freundii, staphylococci, streptococci, P. aeruginosa and N. gonorrhoeae.
Mice are challenged by injecting 0.5 ml intraperitoneally or 0.05 ml intranasally of a predetermined bacterial inoculum suspended in broth, saline or hog gastric mucin (supplemented with dried bovine hemoglobin for N. gonorrhoeae). […] Antibacterial doses (dose concentration prepared by two fold serial dilutions of the antibiotic) are dissolved or suspended in 0.2% aqueous agar or methocel, phosphate buffered saline or an adjuvant are administered orally, subcutaneously or intravenously in the following manner: • a) Orally or subcutaneously: Dose volume of 0.5 ml administered ½ hr after infection. A second dose may be administered 3 hr. after infection for treatment of infections with more virulent organisms. • b) Intravenously: Dose volume of 0.2 ml, administered ½ hr. after infection. For the treatment of infections with more virulent organisms, more doses, up to 48 hr may be administered. (Intravenous dosing will not exceed 3 doses/24 hr period.) • c) Oral pretreatment: Under special circumstances, the pH of the stomach needs to be adjusted in order to increase the gastric stability of the antibiotic. For this purpose, 0.5 ml of phosphate buffered saline (pH7.8, 0.06M) (or specific approved adjuvant) is administered orally ½ hr after infection, followed 5 minutes later by 0.5 ml of antibiotic (also orally) contained in phosphate buffered saline (pH7.8, 0.06M). Animal Species
A detailed explanation as to the number of animals needed for the determination of in vivo efficacy follows: • A) Novel antibiotics are tested at 5 different dose levels with 5 mice per dose level at each of three routes of administration (oral, subcutaneous and intravenous). […] This would require 25 mice/route with 3 routes/antibiotic or 75 mice per novel compound tested. One to two novel antibiotics will be tested per experiment (75-150 mice) • B) The effectiveness of the new compound must be compared to that of a standard, or antibiotic of known effectiveness. Known or previously tested antibiotics are tested at 5 dose levels with 5 mice per dose level by a single route of administration, for a total of 25 mice/antibiotic. Usually 3-6 antibiotics will be tested per experiment. (75-150 mice). • C) Untreated controls—In each of the above tests, untreated animals are infected with 3 different concentrations of bacterial inoculum with 10 mice per concentration (30 mice total in each and every test). These untreated controls are used to determine and maintain the infection level between 10-100 LD50s as required for test to test comparison and validity. Determination of Protective Effects of Antibacterial Agents:
The protective effects of the antibacterial agent(s) are measured by the survival of the infected untreated as compared to the treated animals. For this determination, animals are observed for 7 days after treatment. A census of survivors is taken twice daily and at that time dead as well as moribund animals are removed. The 7 day survival ratio from three separate tests are pooled for estimation of median effective dose (ED50) by computerized program for probit analysis (Cleeland, R. and E. Squires. 1991. Evaluation of New Antimicrobials in Vitro and in Experimental Animal Infections. In Antibiotics in Laboratory Medicine”, 3rd. ed., edited by Victor Lorian. Willams and Wilkins Baltimore, Md. pp. 752-783). […]

E. Cloacae GC1477 (Ampc) = test: Antimicrobial susceptibility testing, microbroth dilution MIC of piperacillin + inhibitor; format: cell-based; conditions: piperacillin combined with constant 4 μg/ml inhibitor; Inc: 35° C. for 18 hours
Method: (§3) Antimicrobial susceptibility testing. The in vitro activities of the antibiotics were determined by the microbroth dilution method as recommended by the National Committee for Clinical Laboratory Standards (NCCLS). (NCCLS. 2000. Methods for Dilution Antimicrobial Susceptibility Tests for Bacteria That Grow Aerobically; Approved Standards: M7-A5, vol. 19. National Committee for Clinical Laboratory Standards, Villanova, Pa.). Mueller-Hinton it broth (MHBII)(BBL Cockeysville, Md.), was used for the testing procedure. Microtiter plates containing 50 μl per well of two-fold serial dilutions of piperacillin combined with a constant amount (4 μg/ml) of a B-lactamase inhibitor (final concentration) were inoculated with 50 μl of inoculum to yield the appropriate density (10^5 CFU/ml) in 100 μl. The plates were incubated for 18-22 hours at 35° C. in ambient air.

E. Coli GC2203 = test: as above; format: cell-based; conditions: piperacillin combined with constant 4 μg/ml inhibitor; Inc: 35° C. for 18 hours
Method: as §3

E. Coli GC2844 = test: as above; format: cell-based; conditions: piperacillin combined with constant 4 μg/ml inhibitor; Inc: 35° C. for 18 hours
Method: as §3

E. Coli GC2847 (TEM-1) = test: as above; format: cell-based; conditions: piperacillin combined with constant 4 μg/ml inhibitor; Inc: 35° C. for 18 hours
Method: as §3

E. Coli GC2894 (Ampc) = test: as above; format: cell-based; conditions: piperacillin combined with constant 4 μg/ml inhibitor; Inc: 35° C. for 18 hours
Method: as §3

E. Coli GC2920 (IRT-2) = test: as above; format: cell-based; conditions: piperacillin combined with constant 4 μg/ml inhibitor; Inc: 35° C. for 18 hours
Method: as §3

[4] = tested on: P. aeruginos GC1764 (Ampc); test: as above; format: cell-based; conditions: piperacillin combined with constant 4 μg/ml inhibitor; Inc: 35° C. for 18 hours
Method: as §3

[5] = tested on: S. Marcescens GC1781 Sme-1 + Ampc; test: as above; format: cell-based; conditions: piperacillin combined with constant 4 μg/ml inhibitor; Inc: 35° C. for 18 hours
Method: as §3

S. aureus GC2216 = test: as above; format: cell-based; conditions: piperacillin combined with constant 4 μg/ml inhibitor; Inc: 35° C. for 18 hours
Method: as §3

[6] = enzyme 4.3 nM, 10 min preincubation at 25° C., nitrocefin 50 μg/ml, 50 mM PO4, pH 7.0, read-out: IC50 (nM) Class A TEM-1
[7] = enzyme 1.2 nM, 10 min preincubation at 25° C., nitrocefin 50 μg/ml, 50 mM PO4, pH 7.0
[8] = Ratio of Piperacillin Inhibitor 2:1, read-out: ED50
[9] = Ratio of Piperacillin Inhibitor 4:1, read-out: ED50

class C enzyme AmpC, sequence (P05364 21-381): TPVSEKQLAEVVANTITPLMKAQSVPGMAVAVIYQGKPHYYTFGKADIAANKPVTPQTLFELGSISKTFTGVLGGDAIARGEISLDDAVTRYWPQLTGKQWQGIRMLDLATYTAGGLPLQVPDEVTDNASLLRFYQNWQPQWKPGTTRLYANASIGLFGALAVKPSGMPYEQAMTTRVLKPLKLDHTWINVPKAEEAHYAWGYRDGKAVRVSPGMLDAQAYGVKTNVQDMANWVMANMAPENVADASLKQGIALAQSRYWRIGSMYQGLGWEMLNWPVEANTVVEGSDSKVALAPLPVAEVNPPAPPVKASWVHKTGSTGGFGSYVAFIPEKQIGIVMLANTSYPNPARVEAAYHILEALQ
class A β-lactamase TEM-1, sequence (P62593 24-286 limits assumed): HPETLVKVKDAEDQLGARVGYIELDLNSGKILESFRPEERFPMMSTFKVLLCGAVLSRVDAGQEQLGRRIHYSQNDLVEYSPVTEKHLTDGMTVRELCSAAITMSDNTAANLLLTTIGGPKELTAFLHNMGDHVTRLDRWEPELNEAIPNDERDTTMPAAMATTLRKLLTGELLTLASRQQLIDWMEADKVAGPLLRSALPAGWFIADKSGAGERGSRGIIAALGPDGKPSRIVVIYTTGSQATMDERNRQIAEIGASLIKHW
class B enzyme CcrA, sequence (P25910 19-249): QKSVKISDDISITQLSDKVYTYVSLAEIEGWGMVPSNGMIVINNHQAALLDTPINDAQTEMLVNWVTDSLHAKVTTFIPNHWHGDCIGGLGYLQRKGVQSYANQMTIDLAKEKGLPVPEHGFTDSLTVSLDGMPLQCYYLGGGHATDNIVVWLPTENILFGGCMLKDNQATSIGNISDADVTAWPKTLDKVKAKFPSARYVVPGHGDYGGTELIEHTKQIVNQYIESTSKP
class A β-lactamase Imi-1, sequence (Q46991 entry or part of it): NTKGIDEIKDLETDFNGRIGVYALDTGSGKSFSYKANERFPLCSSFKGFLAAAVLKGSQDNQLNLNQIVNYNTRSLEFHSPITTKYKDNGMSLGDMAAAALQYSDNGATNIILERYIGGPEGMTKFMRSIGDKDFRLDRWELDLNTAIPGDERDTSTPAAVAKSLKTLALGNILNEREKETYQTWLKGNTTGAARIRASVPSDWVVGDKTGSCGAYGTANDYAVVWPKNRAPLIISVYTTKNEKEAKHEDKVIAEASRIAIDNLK

Row | SMILES | IC50 [1, 6] [nM] | IC50 [2] [nM] | IC50 (class B enzyme CcrA; [7]) [nM] | IC50 (class C enzyme AmpC) [nM] | ED50 [3, 8] [mg/kg] | IC50 [1] [nM] | ED50 [3, 9] [mg/kg] | further results
1 | O=C(O)C1=CS[C@@H]2/C(=C\c3cn4c(n3)sc3ccccc34)C(=O)N12 [Example 1, (5R,6Z)-6-(Imidazo[2,1-b][1,3]benzothiazol-2-ylmethylene)-7-oxo-4-thia-1-azabicyclo[3.2.0]hept-2-ene-2-carboxylic acid] | 10 | 160 | 350 | 1.4 | 32 to 64 |  |  | 
2 | COc1ccc2c(c1)sc1nc(/C=C3/C(=O)N4C(C(=O)O)=CS[C@H]34)cn12 [Example 2] | 18 | 180 | 250 | 2.4 | > 64 |  |  | 
3 | O=C(O)C1=CS[C@@H]2/C(=C\c3cn4c(ccc5ccccc54)n3)C(=O)N12 [Example 4, (5R),(6Z)-6-Imidazo[1,2-a]quinolin-2-ylmethylene-7-oxo-4-thia-1-azabicyclo[3.2.0]hept-2-ene-2-carboxylic acid] |  | 90 | 900 | 2.1 | 32 to 64 | 6 |  | 
4 | O=C(O)C1=CS[C@@H]2/C(=C\c3cn4c(n3)nc3n4CCCC3)C(=O)N12 [Example 8, (5R), (6Z)-6-(4,5,6,7-tetrahydro-1,3a,3b,8-tetraaza-cyclopenta[a]indene-2-ylmethylene)-7-oxo-4-thia-1-aza-bicyclo[3.2.0]hept-2-ene-2-carboxylic acid sodium salt] |  | 15 | 450 | 1.4 |  | 2.4 | 16 to 64 | 
5 | CCOc1nc2nc(C=C3C(=O)N4C(C(=O)O)=CSC34)cn2c2c1CCC2 (stereo not drawn) [Example 10, 6-(5-ethoxy-7,8-dihydro-6H-3,4,8b-triaza-as-indacen-2-ylmethylene)-7-oxo-4-thia-1-aza-bicyclo[3.2.0]hept-2-ene-2-carboxylic acid] |  | 35 | 140 | 5.8 |  | 48 | 55.6 | 
6 | O=C([O-])C1=CS[C@@H]2C(=Cc3cc4n(n3)Cc3ccccc3OC4)C(=O)N12.[Na+] [Example 11, (5R,6E&Z)-7-oxo-6-(4H,10H-pyrazolo[5,1-c][1,4]-benzoxazepin-2-ylmethylene)-4-thia-1-azabicyclo[3.2.0]hept-2-ene-2-carboxylic acid, sodium salt] | 1.4 |  | 62 |  |  |  |  | IC50 ([2]; enzyme 7.1 nM, 10 min preincubation at 25° C., nitrocefin 50 μg/ml, 50 mM PO4, pH 7.0, read-out: IC50 (nM) Class A Imi): 78 nM; IC50 (class C enzyme AmpC; enzyme 2.1 nM, 10 min preincubation at 25° C., nitrocefin 50 μg/ml, 50 mM PO4, pH 7.0, read-out: IC50 (nM) Class C AmpC): 3.6 nM; Minimal Inhibitory Concentration E. Cloacae GC1477 (Ampc) (E. Cloacae GC1477 (Ampc)): 32 µg/mL; Minimal Inhibitory Concentration E. Coli GC2203 (E. Coli GC2203): 1 µg/mL; Minimal Inhibitory Concentration E. Coli GC2844 (E. Coli GC2844): 1 µg/mL; Minimal Inhibitory Concentration E. Coli GC2847 (TEM-1) (E. Coli GC2847 (TEM-1)): 8 µg/mL; Minimal Inhibitory Concentration E. Coli GC2894 (Ampc) (E. Coli GC2894 (Ampc)): 4 µg/mL; Minimal Inhibitory Concentration E. Coli GC2920 (IRT-2) (E. Coli GC2920 (IRT-2)): 1 µg/mL; Minimal Inhibitory Concentration P. aeruginos GC1764 (Ampc) [4]: 16 µg/mL; Minimal Inhibitory Concentration S. Marcescens GC1781 Sme-1 + Ampc [5]: 1 µg/mL; Minimal Inhibitory Concentration S. aureus GC2216 (S. aureus GC2216): <0.06 µg/mL
7 | O=C(O)C1=CS[C@@H]2/C(=C\c3cn4c(n3)-c3ccccc3C4)C(=O)N12 [Example 12, (5R), (6Z)-6-(5H-Imidazo[2,1-a]isoindol-2-ylmethylene)-7-oxo-4-thia-1-aza-bicyclo[3.2.0]hept-2-ene-2-carboxylic acid sodium salt] |  | 6.4 | 42 | 28 |  | 2.6 | 50 | 
8 | O=C(O)C1=CS[C@@H]2/C(=C\c3cn4c(n3)sc3cc(F)ccc34)C(=O)N12 [Example 14] |  | 270 |  | 2.4 |  | 8.1 |  | IC50 (class B enzyme CcrA; pH 7): 370 nM; ED50 ([3]; Ratio of Piperacillin Inhibitor not given, read-out: ED50): > 64 mg/kg
